Values after ≈ are worked out from the molar mass of the structure shown. Where two headings read alike, the source gives them in different places.
Assays:
Candida albicans H8 = experiment: Antifungal agar well diffusion assay; details: 20 μL water solution in 4 mm well
Experimental: (§1) The well diffusion test was performed using Casitone agar. The inoculum used was prepared using the Candida or Aspergillus strains from a 24-hour culture on Sabouraud dextrose agar, a suspension was made in a sterile saline solution (0.85%). The turbidity of the suspension was adjusted with a spectrophotometer at 530 nm to obtain a final concentration to match that of a 0.5 McFarland standard (0.5-2.5×10^3). 20 mL of Bacto-casitone were melted, cooled to 55° C. and then inoculated with 1 mL of the organism suspension. The inoculated agar was poured into the assay plate (9 cm in diameter) and allowed to cool down on a leveled surface.

Aspergillus niger = experiment: Antifungal agar well diffusion assay; details: 20 μL water solution in 4 mm well
Experimental: as §1

[1] = tested on: Mycobacterium abscessus ATCC 19977; experiment: REMA MIC90 against M. abscessus ATCC 19977; type: cell-based; details: Mycobacteroides abscessus
Experimental: Briefly, serial 2-fold dilutions of drug are prepared in 96-well microtiter plates (Fluoronunc, Thermo Fisher, Waltham, MA, USA) in 100 μL of Middlebrook 7H9 medium (Difco), supplemented with 10% OADC without addition of Tween 80. Then, M. abscessus log-phase cultures were diluted (OD600=0.02) and added in the 96-well microtiter plate. Growth controls containing no compound and sterile controls without inoculum are also included. […] After 1 day of incubation at 37° C., 10 μL of resazurin (0.025% w/v) is added to each well, and bacterial viability is assessed after a further 24 h of incubation using a Fluoroskan™ Microplate Fluorometer (Thermo Fisher Scientific, Waltham, MA, USA; excitation=544 nm, emission=590 nm). […] Results are expressed as the average of at least three independent replicates and presented on the following Table 1.

Penicillium notatum = experiment: Antifungal agar well diffusion assay; details: 20 μL water solution in 4 mm well
Experimental: as §1

[2] = tested on: Sporobolomyces salmonicolor; experiment: Antifungal agar well diffusion assay; details: 20 μL water solution in 4 mm well
Experimental: as §1

[3] = ATCC19977, read-out: MIC in M. abscessus ATCC 19977
[4] = ATCC19977, MIC90, REMA, Table 1, read-out: MIC in M. abscessus ATCC 19977

| Compound | Inhibition Zone of Test Microorganism (Candida albicans H8) | Inhibition Zone of Test Microorganism (Aspergillus niger) | MIC [1, 3] | Inhibition Zone of Test Microorganism (Penicillium notatum) | Inhibition Zone of Test Microorganism [2] | MIC [1, 4] |
| --- | --- | --- | --- | --- | --- | --- |
| [Na+].[O-][n+]1cc(C(F)(F)F)ccc1[S-] [Compound 5, Sodium 5-(trifluoromethyl)pyridine-2-thiolate 1-oxide] | 49 mm | 22 mm | 250 µg/mL | 15 mm | 40 mm | – |
| CCOC(=O)c1ccc(S)[n+]([O-])c1 [Compound 1, Ethyl 6-mercaptonicotinate 1-oxide] | 56 mm | 26 mm | – | 17 mm | 43 mm | 125 µg/mL (≈ 627 µM) |
| COC(=O)c1ccc(S)[n+]([O-])c1 [Compound 3, Methyl 6-mercaptonicotinate 1-oxide] | – | – | – | – | – | 250 µg/mL (≈ 1350 µM) |
| NC(=O)c1ccc([S-])[n+]([O-])c1.[K+] [Compound 6, Potassium 5-(aminocarbonyl)pyridine-2-thiolate 1-oxide] | – | – | 500 µg/mL | – | – | – |
| CN(C)C(=O)c1ccc([S-])[n+]([O-])c1.[Na+] [Compound 9, Sodium 5-[(dimethylamino)carbonyl]pyridine-2-thiolate 1-oxide] | – | – | – | – | – | 500 µg/mL |
| O=C(c1ccc([S-])[n+]([O-])c1)N1CCCCC1.[K+] [Compound 7, Potassium 5-(piperidin-1-ylcarbonyl)pyridine-2-thiolate 1-oxide] | 52 mm | 23 mm | 1000 µg/mL | 15 mm | 43 mm | – |
| COC(=O)c1ccc([S-])[n+]([O-])c1.[Na+] [Compound 4, Sodium 5-(methoxycarbonyl)pyridine-2-thiolate 1-oxide] | – | – | – | – | – | 250 µg/mL |
| CN(C)C(=O)c1ccc(S)[n+]([O-])c1 [Compound 8, 6-Mercapto-N,N-dimethylnicotinamide 1-oxide] | – | – | – | – | – | 500 µg/mL (≈ 2520 µM) |
| C[C@@H]1[C@H](O)[C@@H](C)/C=C/C=C/C=C/C=C/C=C/C=C/C=C/[C@H](O[C@@H]2O[C@H](C)[C@@H](O)[C@H](N)[C@@H]2O)C[C@@H]2O[C@](O)(C[C@@H](O)C[C@@H](O)[C@H](O)CC[C@@H](O)C[C@@H](O)CC(=O)O[C@H]1C)C[C@H](O)[C@H]2C(=O)O [Amph. B, reference compound] | 22 mm | 17 mm | – | 12 mm | 15 mm | – |
| CC(C)OC(=O)c1ccc([S-])[n+]([O-])c1.[Na+] [Compound 10, Sodium 5-(isopropoxycarbonyl)pyridine-2-thiolate 1-oxide] | – | – | – | – | – | 500 µg/mL |
